Measured values published in the supplement of paper PMC11061612.

Assays:
Test in all cases: combination Emax (second highest fraction inhibited in the dose matrix, 72 h); higher = more inhibition; extreme values may be limits of the assay
[1] = system: Jurkat (T-Lymphoblastic Leukemia)
Method in brief: (§1)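 After 24 hours at 37°C and 5% CO2 in 1536-well plates, cells in DMEM/F12 or RPMI plus 10% FBS received two-drug dose matrices for 72 hours. Viability came from CellTiter-Glo 2.0 luminescence and was scaled as inhibition, anchored at 0 by vehicle wells and at 1 by blank wells. Combination Emax is taken as the second-highest inhibition in the matrix, and Bliss excess as the observed combination effect less EA + EB − EA·EB, with EA and EB the single-agent effects.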

COLO-792 (Melanoma) = system: COLO-792 (Melanoma)
Method in brief: as §1

[2] = system: GA-10 (Burkitt's Lymphoma)
Method in brief: as §1

AU565 (Breast Carcinoma) = system: AU565 (Breast Carcinoma)
Method in brief: as §1

[3] = system: EPLC-272H (Other Solid Carcinomas)
Method in brief: as §1

[4] = system: NCI-H2228 (Lung Adenocarcinoma)
Method in brief: as §1

EW-16 (Ewing's Sarcoma) = system: EW-16 (Ewing's Sarcoma)
Method in brief: as §1

[5] = system: ESO26 (Esophageal Adenocarcinoma)
Method in brief: as §1

[6] = system: CGTH-W-1 (Thyroid Gland Carcinoma)
Method in brief: as §1

[7] = system: huH-1 (Hepatocellular Carcinoma)
Method in brief: as §1

[8] = system: JIMT-1 (Breast Carcinoma)
Method in brief: as §1

[9] = system: A2780 (Ovarian Carcinoma)
Method in brief: as §1

A101D (Melanoma) = system: A101D (Melanoma)
Method in brief: as §1

[10] = system: OACp4C (Esophageal Adenocarcinoma)
Method in brief: as §1

[11] = system: 22RV1 (Prostate Carcinoma)
Method in brief: as §1

[12] = system: NCI-H1703 (Squamous Cell Lung Carcinoma)
Method in brief: as §1

A204 (Rhabdomyosarcoma) = system: A204 (Rhabdomyosarcoma)
Method in brief: as §1

5637 (Bladder Carcinoma) = system: 5637 (Bladder Carcinoma)
Method in brief: as §1

[13] = system: KYSE-220 (Esophageal Squamous Cell Carcinoma)
Method in brief: as §1

[14] = system: NCI-H1651 (Lung Adenocarcinoma)
Method in brief: as §1

Compound	combination Emax [1]	combination Emax (COLO-792 (Melanoma))	combination Emax [2]	combination Emax (AU565 (Breast Carcinoma))	combination Emax [3]	combination Emax [4]	combination Emax (EW-16 (Ewing's Sarcoma))	combination Emax [5]	combination Emax [6]	combination Emax [7]	combination Emax [8]	combination Emax [9]	combination Emax (A101D (Melanoma))	combination Emax [10]	combination Emax [11]	combination Emax [12]	combination Emax (A204 (Rhabdomyosarcoma))	combination Emax (5637 (Bladder Carcinoma))	combination Emax [13]	combination Emax [14]
NC1(C(=O)N[C@@H](CCO)c2ccc(Cl)cc2)CCN(c2ncnc3[nH]ccc23)CC1 [Capivasertib] + CC(C)n1c(=O)n(C)c2cnc3cc(F)c(-c4ccc(OCCCN5CCCCC5)nc4)cc3c21 [AZD1390] (first compound max 10 µM, 7x7, partner max 0.3 µM)	0.697	0.444	0.74	0.535	0.632	0.46	0.296	0.449	0.357	0.299	0.202	0.643	0.46	0.818	0.527	0.548	0.382	0.336	0.49	0.149
COc1nnc2ccc(N3CCC(c4ccc(OCCN5CCN(C)C(=O)[C@H]5C)cc4)CC3)nn12 [AZD5153] + C=CCn1c(=O)c2cnc(Nc3ccc(N4CCN(C)CC4)cc3)nc2n1-c1cccc(C(C)(C)O)n1 [AZD1775] (first compound max 1 µM, partner max 1 µM)	0.983	0.856	0.996	0.742	0.862	0.465	0.679	0.757	0.275	0.558	0.622	0.844	0.737	0.882	0.529	0.992	0.471	0.944	0.804	0.822
COc1cccc(OCCCN)c1-c1cc(Nc2cnc(C#N)cn2)n[nH]1 [Prexasertib] + C=CCn1c(=O)c2cnc(Nc3ccc(N4CCN(C)CC4)cc3)nc2n1-c1cccc(C(C)(C)O)n1 [AZD1775] (first compound max 1 µM, partner max 1 µM)	1	0.593	1	0.891	0.914	0.719	0.75	0.649	0.765	0.811	0.869	0.945	0.832	0.835	0.619	0.985	0.648	0.924	0.973	0.822
C=CCn1c(=O)c2cnc(Nc3ccc(N4CCN(C)CC4)cc3)nc2n1-c1cccc(C(C)(C)O)n1 [AZD1775] + C1CN(CCC1(C(=O)N[C@@H](CCO)C2=CC=C(C=C2)Cl)N)C3=NC=NC4=C3C=CN4 [Capivasertib] (first compound max 3 µM, partner max 3 µM)	0.986	0.651	0.964	0.833	0.834	0.59	0.888	0.707	0.211	0.666	0.76	0.873	0.757	0.889	0.616	0.911	0.529	0.957	0.85	0.794
CN(C)CCCOc1ccc(-c2ccc3ncc4c(c3c2)n(C2CCOCC2)c(=O)n4C)cn1 [AZD0156] + C[C@@H]1COCCN1C2=NC(=NC(=C2)C3(CC3)[S@](=N)(=O)C)C4=C5C=CNC5=NC=C4 [AZD6738] (first compound max 1 µM, 7x7, partner max 10 µM)	0.898	0.273	1	0.473	0.903	0.517	0.695	0.414	0.35	0.821	0.799	0.81	0.703	0.724	0.524	0.856	0.411	0.712	0.876	0.649
COc1nnc2ccc(N3CCC(c4ccc(OCCN5CCN(C)C(=O)[C@H]5C)cc4)CC3)nn12 [AZD5153] + Cn1cnc2c(F)c(Nc3ccc(Br)cc3Cl)c(C(=O)NOCCO)cc21 [Selumetinib] (first compound max 1 µM, 7x7, partner max 10 µM)	0.594	0.882	0.714	0.328	0.868	0.428	0.506	0.709	0.356	0.438	0.426	0.823	0.872	0.945	0.555	0.626	0.484	0.81	0.808	0.138
CC1(C)CCC(CN2CCN(c3ccc(C(=O)NS(=O)(=O)c4ccc(NCC5CCOCC5)c([N+](=O)[O-])c4)c(Oc4cnc5[nH]ccc5c4)c3)CC2)=C(c2ccc(Cl)cc2)C1 [Venetoclax] + Cn1cnc2c(F)c(Nc3ccc(Br)cc3Cl)c(C(=O)NOCCO)cc21 [Selumetinib] (first compound max 1 µM, 7x7, partner max 3 µM)	0.277	0.505	0.207	0.201	0.506	0.185	0.127	0.137	0.124	0.114	0.14	0.377	0.568	0.488	0.368	0.178	0.206	0.264	0.31	0.0964
COc1cccc(OCCCN)c1-c1cc(Nc2cnc(C#N)cn2)n[nH]1 [Prexasertib] + C[C@@H]1COCCN1C2=NC(=NC(=C2)C3(CC3)[S@](=N)(=O)C)C4=C5C=CNC5=NC=C4 [AZD6738] (first compound max 1 µM, 7x7, partner max 10 µM)	0.992	0.351	1	0.633	0.942	0.643	0.736	0.541	0.711	0.762	0.857	0.825	0.773	0.737	0.655	0.97	0.534	0.845	0.939	0.722
CC1(C)CCC(CN2CCN(c3ccc(C(=O)NS(=O)(=O)c4ccc(NCC5CCOCC5)c([N+](=O)[O-])c4)c(Oc4cnc5[nH]ccc5c4)c3)CC2)=C(c2ccc(Cl)cc2)C1 [Venetoclax] + Cc1cc2ncnn2cc1Nc1ncc2c(n1)n(C1CCOCC1)c(=O)n2C [AZD7648] (first compound max 1 µM, 7x7, partner max 10 µM)	0.303	0.411	0.698	0.295	0.514	0.4	0.193	0.134	0.259	0.162	0.242	0.628	0.451	0.338	0.456	0.465	0.408	0.251	0.145	0.191
Cc1c2c(nn1C)CSCc1cc(n(C)n1)CSc1cc(c3ccccc3c1)OCCCc1c(C(=O)O)n(C)c3c-2c(Cl)ccc13 [AZD5991] + C1CN(CCC1(C(=O)N[C@@H](CCO)C2=CC=C(C=C2)Cl)N)C3=NC=NC4=C3C=CN4 [Capivasertib] (first compound max 1 µM, 7x7, partner max 3 µM)	1	0.988	0.858	1	0.932	0.426	0.195	0.405	0.265	0.227	0.21	0.838	1	0.783	0.706	0.847	0.689	0.174	0.252	0.254
CN(C)CCCOc1ccc(-c2ccc3ncc4c(c3c2)n(C2CCOCC2)c(=O)n4C)cn1 [AZD0156] + C=CCn1c(=O)c2cnc(Nc3ccc(N4CCN(C)CC4)cc3)nc2n1-c1cccc(C(C)(C)O)n1 [AZD1775] (first compound max 1 µM, partner max 1 µM)	0.879	0.538	0.988	0.454	0.771	0.5	0.307	0.458	0.188	0.592	0.488	0.79	0.495	0.83	0.346	0.967	0.27	0.745	0.812	0.62
C[C@@H]1COCCN1c1cc(C2([S@](C)(=N)=O)CC2)nc(-c2ccnc3[nH]ccc23)n1 [AZD6738] + O=C(c1cc(Cc2n[nH]c(=O)c3ccccc23)ccc1F)N1CCN(C(=O)C2CC2)CC1 [Olaparib] (first compound max 10 µM, 7x7, partner max 10 µM)	0.965	0.278	0.942	0.449	0.824	0.523	0.808	0.319	0.386	0.685	0.598	0.832	0.661	0.71	0.631	0.847	0.417	0.726	0.808	0.729
CC1(C)CCC(CN2CCN(c3ccc(C(=O)NS(=O)(=O)c4ccc(NCC5CCOCC5)c([N+](=O)[O-])c4)c(Oc4cnc5[nH]ccc5c4)c3)CC2)=C(c2ccc(Cl)cc2)C1 [Venetoclax] + CCN(CCO)CCCOc1ccc2c(Nc3cc(CC(=O)Nc4cccc(F)c4)[nH]n3)ncnc2c1 [AZD2811] (first compound max 1 µM, 7x7, partner max 1 µM)	0.2	0.446	0.598	0.181	0.371	0.253	0.714	0.126	0.272	0.191	0.284	0.472	0.477	0.665	0.232	0.523	0.368	0.607	0.299	0.233
